In US20090048301A1 (IMCLONE SYSTEMS INCORPORATED, priority 2003, published 2009):

Tests used:
bovine tubulin = test: In vitro tubulin polymerization assay (turbidity at 340 nm); assay type: biochemical; conditions: 10 μM compound, 30 minute data point, vs 1% DMSO control
Method in brief: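 Percent inhibition derives from turbidity (340 nm) at 30 min relative to 1% DMSO controls, read every minute at 37° C. Polymerization mix: 3 mg/ml bovine tubulin, <3% MAPs, in PIPES pH 7 G-PEM with 1 mM GTP, 1 mM MgCl2, 5% glycerol; enhancers also detectable.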

[1] = tested on: A431 human cancer cell line; test: Sulphorhodamine B (SRB) growth inhibition assay; assay type: cell-based; conditions: A-431, A431 cells, 48 hours, read-out: SRB Assay: μM required to inhibit tumor cell growth by 50% (GI50)
Protocol: The in vitro growth inhibition activity of the compounds was determined by the Sulphorhodamine B assay. (Skehan P, Storeng R, Scudiero D, Monks A, McMahon J, Vistica D, Warren J T, Bokesch H, Kenney S, Boyd M R. New colorimetric cytotoxicity assay for anticancer-drug screening. J Natl Cancer Inst 82, 1107-1112, 1990). Sulphorhodamine B binds to basic amino acids and stains proteins which can be eluted and detected spectrophotometically by measuring absorbance at 515 nm. The absorbance was indicative of the total protein content of the cells fixed to the walls of the plate well at a given time by trichloroacetic acid, which is a measure of the viable cell concentration.
The in vitro growth inhibition activity of the compounds was determined using a Sulphorhodamine B assay. See, Skehan et al., “New colorimetric cytotoxicity assay for anticancer-drug screening,” J. Natl. Cancer Inst., 82, 1107-1112, (1990). Sulphorhodamine B binds to basic amino acids and stains proteins which can be eluted and detected spectrophotometically by measuring absorbance at 515 nm. The absorbance indicates the total protein content of the cells fixed to the walls of the plate well at a given time by trichloroacetic acid, which is a measure of the viable cell concentration.
The reagents used in the assay can be purchased from commercial sources and include Sulphorhodamine B 0.4% (w/v) in 1% (v/v) acetic acid (Sigma Cat#S-1402); trichloroacetic acid 50% (w/v) in deionized water, working solution (Sigma Cat#T-9159); and trizma base (Tris) 10 mM working solution, pH 7.5 (Sigma Cat#T-7693).
The procedure was cared out over four days. In Day 1, the cells were seeded in a seed 10,000 cells/100 μL/well in 96 well plate in duplicates as per template. Also, seed cells in extra plate for time zero (To plate). Thereafter, the cells were incubated for 24 hours at 37° C. with 5% CO2.
On Day 2, the test compound was added to the cells at five log doses from 100 μM to 0.01 μM (Volume of addition=100 μL in 1% DMSO for all compound concentrations, Control treatment=1% DMSO).
The compounds were prepared by weighing the test compounds in 1.5 ml eppendorf tubes and calculating the volume of DMSO to be added to bring the concentration of the compound to 20 mM. Thereafter, a 20 mM stock was made and diluted by four 10 fold dilutions in DMSO to get 2, 0.2, 0.02 and 0.002 mM solutions. Each solution was diluted 100 times (10 μL to 1 ml medium) and a further addition to the culture plate (100 μL) to half the concentration of cells was made. The final well concentration for 20 mM stock was 100 μM and similarly with other test concentrations.
The cells were incubated for 48 hours at 37° C. with 5% CO2 and terminated by adding 50 μL of 50% cold trichloroacetic acid (10% to final). Thereafter, the cells were incubated for one hour at 4° C.
On Day 4, the cells were fixed to the wells by the addition of 50 μL of 50% cold trichloroacetic acid (10% to final) and incubated for 1 hour at 4° C. The supernatant was discarded by force inverting the plate into the sink followed by washing thrice with tap water and the plates are then air-dried. 100 μL SRB (0.4% in 1% acetic acid) was added to each well and the plates were incubated for 10 minutes at room temperature. Unbound dye was removed by force inverting the plate into the sink and washing thrice with 1% acetic acid. Thereafter, the plates were allowed to air dry.
Bound SRB was solubilized with 100 μL of 10 mM Tris, pH 7.4 and the absorbance was measured at a wavelength of 515 nm.
A sample set of calculations was performed as follows. The percentage growth was calculated by T-To/C-To X 100 if T>To and T-To/To X 100 if T<To, wherein T is Test OD (with compound), C is Control OD, To is Time Zero OD (cell growth at the time of drug addition). […]

COc1cc(Nc2ncccc2-c2nnc(Nc3ccc(OC)cc3OC)[nH]2)cc(OC)c1 [Compound 12, (3,5-Dimethoxy-phenyl)-{3-[5-(2,4-dimethoxy-phenylamino)-4H-[1,2,4]triazol-3-yl]-pyridin-2-yl}-amine]
Tubulin Assay: percent inhibition at 10 μM based on 30 minute data (bovine tubulin): 46% | GI50 [1]: 20 µM

CS(=O)(=O)c1ccc(-c2nnc(-c3cccnc3NCCCN3CCCC3=O)[nH]2)cc1 [Compound 75, 1-(3-{3-[5-(4-Methanesulfonyl-phenyl)-4H-[1,2,4]triazol-3-yl]-pyridin-2-ylamino}-propyl)-pyrrolidin-2-one]
Tubulin Assay: percent inhibition at 10 μM based on 30 minute data (bovine tubulin): 60% | GI50 [1]: 80 µM

COc1ccc(Nc2nnc(-c3cccnc3Nc3ccc4c(c3)OCO4)[nH]2)c(OC)c1 [Compound 10, Benzo[1,3]dioxol-5-yl-{3-[5-(2,4-dimethoxy-phenylamino)-4H-[1,2,4]triazol-3-yl]-pyridin-2-yl}-amine]
Tubulin Assay: percent inhibition at 10 μM based on 30 minute data (bovine tubulin): 73% | GI50 [1]: 20 µM

c1ccc(-c2nnc(Nc3ccc4c(c3)OCO4)o2)c(NCc2ccncc2)c1 [Compound 225, Benzo[1,3]dioxol-5-yl-(5-{2-[(pyridin-4-ylmethyl)-amino]-phenyl}-[1,3,4]oxadiazol-2-yl)-amine]
Tubulin Assay: percent inhibition at 10 μM based on 30 minute data (bovine tubulin): 91% | GI50 [1]: 15 µM

FC(F)(F)Oc1ccc(Nc2nnc(-c3cccnc3NCc3ccc4c(c3)OCO4)o2)cc1 [Compound 179, Benzo[1,3]dioxol-5-ylmethyl-{3-[5-(4-trifluoromethoxy-phenylamino)-[1,3,4]oxadiazol-2-yl]-pyridin-2-yl}-amine]
Tubulin Assay: percent inhibition at 10 μM based on 30 minute data (bovine tubulin): 28% | GI50 [1]: 30 µM

COc1cccc(Nc2nnc(-c3cccnc3NCc3cccnc3)o2)c1 [Compound 185, {3-[5-(3-Methoxy-phenylamino)-[1,3,4]oxadiazol-2-yl]-pyridin-2-yl}-pyridin-3-ylmethyl-amine]
Tubulin Assay: percent inhibition at 10 μM based on 30 minute data (bovine tubulin): 40% | GI50 [1]: 30 µM

FC(F)(F)c1cccc(-c2nnc(-c3ccccc3NCc3cccnc3)[nH]2)c1 [Compound 130, Pyridin-3-ylmethyl-{2-[5-(3-trifluoromethyl-phenyl)-4H-[1,2,4]triazol-3-yl]-phenyl}-amine]
Tubulin Assay: percent inhibition at 10 μM based on 30 minute data (bovine tubulin): 47% | GI50 [1]: 2.75 µM

COc1ccc(Nc2nnc(-c3cccnc3NCc3cccnc3)o2)cc1OC [Compound 190, {3-[5-(3,4-Dimethoxy-phenylamino)-[1,3,4]oxadiazol-2-yl]-pyridin-2-yl}-pyridin-3-ylmethyl-amine]
Tubulin Assay: percent inhibition at 10 μM based on 30 minute data (bovine tubulin): 56% | GI50 [1]: 15 µM

CS(=O)(=O)c1ccc(-c2nnc(-c3cccnc3NCc3cccnc3)[nH]2)cc1 [Compound 89, {3-[5-(4-Methanesulfonyl-phenyl)-4H-[1,2,4]triazol-3-yl]-pyridin-2-yl}-pyridin-3-ylmethyl-amine]
Tubulin Assay: percent inhibition at 10 μM based on 30 minute data (bovine tubulin): 85% | GI50 [1]: 5 µM

COc1cc(Nc2ncccc2-c2nnc(Nc3cc(Cl)cc(Cl)c3)[nH]2)cc(OC)c1 [Compound 53, {3-[5-(3,5-Dichloro-phenylamino)-4H-[1,2,4]triazol-3-yl]-pyridin-2-yl}-(3,5-dimethoxy-phenyl)-amine]
Tubulin Assay: percent inhibition at 10 μM based on 30 minute data (bovine tubulin): 44% | GI50 [1]: 6 µM

c1cnc(NCc2ccc3c(c2)OCO3)c(-c2nnc(Nc3ccc4c(c3)OCO4)[nH]2)c1 [Compound 33, {3-[5-(Benzo[1,3]dioxol-5-ylamino)-4H-[1,2,4]triazol-3-yl]-pyridin-2-yl}-benzo[1,3]dioxol-5-ylmethyl-amine]
Tubulin Assay: percent inhibition at 10 μM based on 30 minute data (bovine tubulin): 60% | GI50 [1]: 10 µM

COc1cccc(-c2nnc(-c3cccnc3NCc3ccc4c(c3)OCO4)[nH]2)c1 [Compound 80, Benzo[1,3]dioxol-5-ylmethyl-{3-[5-(3-methoxy-phenyl)-4H-[1,2,4]triazol-3-yl]-pyridin-2-yl}-amine]
Tubulin Assay: percent inhibition at 10 μM based on 30 minute data (bovine tubulin): 46% | GI50 [1]: 8 µM
